According to US11618743B2, “Herbicidal compounds” (SYNGENTA PARTICIPATIONS AG, priority 2017, dated 2023):

Columns and labels:
Type in all cases: in vivo
[1] = system: Echinochloa crus-galli (ECHCG); experiment: Post-emergence efficacy, Method C; details: Application Rate 400 g/Ha, evaluated at 21 days
Method: (§1) An “instant formulation”, known as the IF50, containing 50 g/L of the “technical” (i.e. unformulated) active ingredient was prepared by dissolving the active ingredient in a mixture of organic solvents and emulsifier, details of which are provided in the table. This IF50 was then mixed with a small, variable amount of acetone to aid dissolution, before addition of a 1% v/v aqueous solution of the adjuvant Empicol ESC70 3EO (Sodium lauryl ether sulphate) and 1% v/v Ammonium sulphate, as the aqueous diluent, to form an aqueous spray solution which contains a predetermined concentration of the active ingredient (which varies depending on the application rate of the active ingredient to the plants).
(§2) Composition of the mixture of organic solvents and emulsifier used as a base for the instant formulation.
(§3) This aqueous spray solution was then sprayed onto the plants after about 21 days' cultivation. The plants were grown from seeds sown in standard soil, placed in a glasshouse under controlled conditions (at 24/18° C., day/night; 14 hours light; 65% humidity). After spray application the plants were then grown on in a glasshouse under the same conditions and watered twice daily. The test was evaluated at 21 days (100=total damage to plant; 0=no damage to plant).
(§4) Ipomoea hederacea (IPOHE), Amaranthus palmeri (AMAPA), Lolium perenne (LOLPE), Eleusine indica (ELEIN), Echinochloa crus-galli (ECHCG), Conyza canadensis (ERICA)

[2] = system: Amaranthus palmeri (AMAPA); experiment: Post-emergence efficacy, Method C; details: Application Rate 400 g/Ha, evaluated at 21 days
Method: as §1, §2, §3, §4

[3] = system: Conyza canadensis (ERICA); experiment: Post-emergence efficacy, Method C; details: Application Rate 400 g/Ha, evaluated at 21 days
Method: as §1, §2, §3, §4

[4] = system: Ipomoea hederacea (IPOHE); experiment: Post-emergence efficacy, Method C; details: Application Rate 400 g/Ha, evaluated at 21 days
Method: as §1, §2, §3, §4

Lolium perenne (LOLPE) [5] = experiment: Post-emergence efficacy, Method C; details: Application Rate 400 g/Ha, evaluated at 21 days
Method: as §1, §2, §3, §4

[6] = system: Digitaria sanguinalis (DIGSA); experiment: Post-emergence efficacy, Method A; details: Application rate 500 g/Ha; evaluated after 13 days; 100=total damage to plant, 0=no damage
In short: (§5)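 Damage rated on a 0–100 scale (100 = plant killed) 13 days after spraying. Spray contained compound in IF50 emulsifier, diluted with 0.25% or 1% Empicol ESC70 plus 1% ammonium sulphate, applied to 14-day-old glasshouse plants (24/16° C., 14 h light, 65% humidity).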

[7] = system: Echinochloa crus-galli (ECHCG); experiment: Post-emergence efficacy, Method A; details: Application rate 500 g/Ha; evaluated after 13 days; 100=total damage to plant, 0=no damage
In short: as §5

Setaria faberi (SETFA) [8] = experiment: Post-emergence efficacy, Method A; details: Application rate 500 g/Ha; evaluated after 13 days; 100=total damage to plant, 0=no damage
In short: as §5

[9] = system: Amaranthus retroflexus (AMARE); experiment: Post-emergence efficacy, Method B; details: 360 h, evaluated after 15 days, read-out: Control of weed species after post-emergence application, AMARE (100=total damage to plant; 0=no damage to plant)
Method: (§6) An “instant formulation”, known as the IF50, containing 50 g/L of the “technical” (i.e. unformulated) active ingredient was prepared by dissolving the active ingredient in a mixture of organic solvents and emulsifier, details of which are provided in the table. This IF50 was then mixed with a small, variable amount of acetone to aid dissolution, before addition of an aqueous solution of 1% v/v ammonium sulphate+1% v/v Empicol ESC70 (Sodium lauryl ether sulphate) adjuvant, as the aqueous diluent, to form an aqueous spray solution which contains a predetermined concentration of the active ingredient (which varies depending on the application rate of the active ingredient to the plants).
as §2
(§7) This aqueous spray solution was then sprayed onto the plants, after about 12 days' cultivation. The plants were grown from seeds sown in standard soil, placed in a glasshouse under controlled conditions (at 24/18° C. or 20/16° C., day/night; 16 hours light; 65% humidity). After spray application the plants were then grown on in a glasshouse under the same conditions and watered twice daily. After 15 days the test was evaluated (100=total damage to plant; 0=no damage to plant).
(§8) Ipomoea hederacea (IPOHE), Euphorbia heterophylla (EPHHL), Chenopodium album (CHEAL), 20 Amaranthus retroflexus (AMARE), Lolium perenne (LOLPE), Digitaria sanguinalis (DIGSA), Eleusine indica (ELEIN), Echinochloa crus-galli (ECHCG), Setaria faberi (SETFA)

[10] = system: Chenopodium album (CHEAL); experiment: Post-emergence efficacy, Method B; details: 360 h, read-out: Control of weed species after post-emergence application, CHEAL (100=total damage to plant; 0=no damage to plant)
Method: as §6, §2, §7, §8

[11] = system: Digitaria sanguinalis (DIGSA); experiment: Post-emergence efficacy, Method B; details: 360 h, evaluated after 15 days, read-out: Control of weed species after post-emergence application, DIGSA (100=total damage to plant; 0=no damage to plant)
Method: as §6, §2, §7, §8

[12] = system: Echinochloa crus-galli (ECHCG); experiment: Post-emergence efficacy, Method B; details: 360 h, read-out: Control of weed species after post-emergence application, ECHCG (100=total damage to plant; 0=no damage to plant)
Method: as §6, §2, §7, §8

Eleusine indica (ELEIN) = experiment: Post-emergence efficacy, Method B; details: 360 h, read-out: Control of weed species after post-emergence application, ELEIN (100=total damage to plant; 0=no damage to plant)
Method: as §6, §2, §7, §8

[13] = system: Euphorbia heterophylla (EPHHL); experiment: Post-emergence efficacy, Method B; details: 360 h, evaluated after 15 days, read-out: Control of weed species after post-emergence application, EPHHL (100=total damage to plant; 0=no damage to plant)
Method: as §6, §2, §7, §8

[14] = system: Ipomoea hederacea (IPOHE); experiment: Post-emergence efficacy, Method B; details: 360 h, read-out: Control of weed species after post-emergence application, IPOHE (100=total damage to plant; 0=no damage to plant)
Method: as §6, §2, §7, §8

Lolium perenne (LOLPE) [15] = experiment: Post-emergence efficacy, Method B; details: 360 h, read-out: Control of weed species after post-emergence application, LOLPE (100=total damage to plant; 0=no damage to plant)
Method: as §6, §2, §7, §8

Setaria faberi (SETFA) [16] = experiment: Post-emergence efficacy, Method B; details: 360 h, evaluated after 15 days, read-out: Control of weed species after post-emergence application, SETFA (100=total damage to plant; 0=no damage to plant)
Method: as §6, §2, §7, §8

[17] = Method B, Application Rate 1000 g/Ha, evaluated after 15 days

SMILES: O=S(=O)([O-])C[n+]1ccc(-c2ncccn2)cn1 [Compound A3, (4-pyrimidin-2-ylpyridazin-1-ium-1-yl)methanesulfonate]
- Control of weed species after post-emergence application, ECHCG (100=total damage to plant; 0=no damage to plant) [1]: 13

SMILES: Cl.O=S(=O)([O-])CC[n+]1ccc(-c2ccncc2)cn1 [Compound A27]
- Control of weed species after post-emergence application, AMAPA (100=total damage to plant; 0=no damage to plant) [2]: 77
- Control of weed species after post-emergence application, ERICA (100=total damage to plant; 0=no damage to plant) [3]: 65
- Control of weed species after post-emergence application, ECHCG (100=total damage to plant; 0=no damage to plant) [1]: 43
- Control of weed species after post-emergence application, IPOHE (100=total damage to plant; 0=no damage to plant) [4]: 90
- Control of weed species after post-emergence application, LOLPE (100=total damage to plant; 0=no damage to plant) (Lolium perenne (LOLPE) [5]): 68

SMILES: Cl.N[C@@H](CCC[n+]1ccc(-c2ncccn2)cn1)C(=O)O.[Cl-] [Compound A211, [(1S)-1-carboxy-4-(4-pyrimidin-2-ylpyridazin-1-ium-1-yl)butyl]ammonium Dichloride]
- Control of weed species after post-emergence application, DIGSA [6]: 100
- Control of weed species after post-emergence application, ECHCG [7]: 100
- Control of weed species after post-emergence application, SETFA (Setaria faberi (SETFA) [8]): 100
- pest or weed control at 500 g/ha ([9]; Application Rate 500 g/Ha): 100%
- pest or weed control at 500 g/ha [10]: 90%
- pest or weed control at 500 g/ha ([11]; Application Rate 500 g/Ha): 100%
- pest or weed control at 500 g/ha [12]: 100%
- pest or weed control at 500 g/ha (Eleusine indica (ELEIN)): 100%
- pest or weed control at 500 g/ha ([13]; Application Rate 500 g/Ha): 80%
- pest or weed control at 500 g/ha [14]: 100%
- pest or weed control at 500 g/ha (Lolium perenne (LOLPE) [15]): 10%
- pest or weed control at 500 g/ha (Setaria faberi (SETFA) [16]; Application Rate 500 g/Ha): 100%

SMILES: O=C([O-])CCC[n+]1ccc(-c2ncccn2)cn1 [Compound A220]
- pest or weed control at 1000 g/ha ([9]; Application Rate 1000 g/Ha): 100%
- pest or weed control at 1000 g/ha [10, 17]: 90%
- pest or weed control at 1000 g/ha ([11]; Application Rate 1000 g/Ha): 100%
- pest or weed control at 1000 g/ha [12, 17]: 90%
- pest or weed control at 1000 g/ha (Eleusine indica (ELEIN); [17]): 100%
- pest or weed control at 1000 g/ha ([13]; Application Rate 1000 g/Ha): 100%
- pest or weed control at 1000 g/ha [14, 17]: 30%
- pest or weed control at 1000 g/ha (Lolium perenne (LOLPE) [15]; [17]): 90%
- pest or weed control at 1000 g/ha (Setaria faberi (SETFA) [16]; Application Rate 1000 g/Ha): 30%
